{
  "source": "ChEMBL document CHEMBL1158796",
  "about": "“Hectochlorin and morpholine derivatives from the Thai sea hare, Bursatella leachii” (2005)",
  "format_in_all_cases": "functional",
  "settings_in_all_cases": "read-out: ED50 (the source's name)",
  "key": {"KB": {"system": "KB", "experiment": "Cytotoxicity against human KB cells by SRB assay"}, "NCI-H187": {"system": "NCI-H187", "experiment": "Cytotoxicity against human NCI-H187 cells by SRB assay"}, "[1]": {"experiment": "Cytotoxicity against human BC cells by SRB assay"}},
  "data": [
    {"smiles": "C[C@@H]1C(=O)O[C@@H](C(C)(C)O)c2nc(cs2)C(=O)OC(C)(C)[C@H](O)c2nc(cs2)C(=O)O[C@H]1CCCC(C)(Cl)Cl", "note": "[DEACETYLHECTOCHLORIN]", "values": [
      {"measurement": "EC50", "setting": "KB", "value": 0.31, "unit": "µM"},
      {"measurement": "EC50", "setting": "NCI-H187", "value": 0.32, "unit": "µM"},
      {"measurement": "EC50", "setting": "[1]", "value": 1.03, "unit": "µM"}
    ]},
    {"smiles": "CC(=O)O[C@@H]1c2nc(cs2)C(=O)O[C@@H](CCCC(C)(Cl)Cl)[C@H](C)C(=O)O[C@@H](C(C)(C)O)c2nc(cs2)C(=O)OC1(C)C", "note": "[HECTOCHLORIN]", "values": [
      {"measurement": "EC50", "setting": "KB", "value": 0.86, "unit": "µM"},
      {"measurement": "EC50", "setting": "NCI-H187", "value": 1.2, "unit": "µM"}
    ]}
  ]
}
